# Literature values as cited in patent publication US20170056332A1, “HEMORRHOID PREPARATION AND SHEETS” (C.B. Fleet Company, Incorporated, priority 2015, published 2017).
# Settings: in the presence of menthol; Obata et al. 1990
compound,measurement,value
CC1CCC(C(C)C)C(O)C1 (stereo not shown) [Menthol],percutaneous absorption of hydrophilic diclofenac sodium,substantially enhanced
